Data on two compounds can be found in BindingDB's records for PubMed 8386236 (Whitby Research, 1993).

Structures are written as SMILES. Bounds are passed on as bounds.

Assay [1] concerns the target T1, Adenosine receptor A2b (Bos taurus, UniProt Q1LZD0).
T1 sequence (Q1LZD0 whole entry): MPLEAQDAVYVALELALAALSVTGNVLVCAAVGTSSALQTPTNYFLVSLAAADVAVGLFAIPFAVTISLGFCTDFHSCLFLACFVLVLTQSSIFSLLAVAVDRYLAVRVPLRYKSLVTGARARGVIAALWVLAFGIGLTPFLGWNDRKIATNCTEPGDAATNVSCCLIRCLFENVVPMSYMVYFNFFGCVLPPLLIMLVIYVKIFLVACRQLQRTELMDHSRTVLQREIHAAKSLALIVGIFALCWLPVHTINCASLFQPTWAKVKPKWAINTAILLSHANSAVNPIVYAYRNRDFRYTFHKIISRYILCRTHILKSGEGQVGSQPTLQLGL

Assay [2] deals with Adenosine receptor A2a (Cavia porcellus, UniProt P46616).
Sequence of Adenosine receptor A2a (P46616 whole entry): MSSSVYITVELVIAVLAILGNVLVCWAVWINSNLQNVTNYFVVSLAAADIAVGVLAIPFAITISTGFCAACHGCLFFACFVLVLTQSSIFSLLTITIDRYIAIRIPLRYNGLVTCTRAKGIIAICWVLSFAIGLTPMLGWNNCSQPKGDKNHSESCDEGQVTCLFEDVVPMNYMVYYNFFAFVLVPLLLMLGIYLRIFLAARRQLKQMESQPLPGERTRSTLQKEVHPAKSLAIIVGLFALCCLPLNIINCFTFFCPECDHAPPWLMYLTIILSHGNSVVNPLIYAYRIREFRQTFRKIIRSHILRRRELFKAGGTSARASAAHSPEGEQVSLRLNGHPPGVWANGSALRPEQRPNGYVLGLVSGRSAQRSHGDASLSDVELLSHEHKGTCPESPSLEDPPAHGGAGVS
Assay [3] concerns the target T2, Adenosine receptor A1 (Bos taurus, UniProt P28190).
T2 sequence (P28190 whole entry): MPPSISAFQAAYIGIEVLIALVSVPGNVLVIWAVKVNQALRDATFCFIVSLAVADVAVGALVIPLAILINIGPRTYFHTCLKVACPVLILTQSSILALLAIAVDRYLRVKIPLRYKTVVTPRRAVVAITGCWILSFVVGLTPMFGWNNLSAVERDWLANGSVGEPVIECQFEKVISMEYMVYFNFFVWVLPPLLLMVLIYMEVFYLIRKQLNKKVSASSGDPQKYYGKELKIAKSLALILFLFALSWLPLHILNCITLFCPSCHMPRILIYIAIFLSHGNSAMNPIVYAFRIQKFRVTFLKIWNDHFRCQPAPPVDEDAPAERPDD

Assay [4] deals with T3, Adenosine receptor A1 (Cavia porcellus, UniProt P47745).
T3 sequence (P47745 whole entry): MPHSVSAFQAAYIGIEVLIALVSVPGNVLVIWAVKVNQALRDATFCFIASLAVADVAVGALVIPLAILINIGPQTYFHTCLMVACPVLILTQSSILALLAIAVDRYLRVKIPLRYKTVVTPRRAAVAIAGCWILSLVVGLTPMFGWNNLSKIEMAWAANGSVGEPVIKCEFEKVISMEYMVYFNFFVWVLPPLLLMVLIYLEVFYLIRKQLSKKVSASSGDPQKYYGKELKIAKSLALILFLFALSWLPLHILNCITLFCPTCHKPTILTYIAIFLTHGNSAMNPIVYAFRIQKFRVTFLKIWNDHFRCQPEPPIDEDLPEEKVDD

As for `Nc1nc(Cl)nc2c1ncn2[C@@H]1O[C@H](CO)[C@@H](O)[C@H]1O` [2-CI Adenosine], the figures for the Ki in assay [1] and in assay [2] were 6.92 µM and over 10 µM, respectively.

Take `CC(Cc1ccccc1)Nc1ncnc2c1ncn2C1OC(CO)C(O)C1O` (centres undefined) [R-N6-(2-phenylisopropyl) adenosine]: the Ki in assay [3] turned out to be 18.2 nM; in assay [4] it was 1950 nM.

What is called Ki is a measure of affinity in units of concentration, obtained from inhibition or displacement. A higher Ki goes with a looser hold on the target.
